Test results as given in US20210323976A1, “HETEROARYL COMPOUNDS FOR KINASE INHIBITION” (ARIAD Pharmaceuticals, Inc., priority 2015, published 2021).
pIC50: −log10 of the molar value.

Assays:
Assay type in all cases: cell-based
[1] = target: T1, EGFR exon 20 ASV insertion (V769_D770insASV) (Homo sapiens, UniProt P00533, INS769ASV); assay: Ba/F3-EGFR-Exon20-ASV cell anti-proliferation assay (MTS, CellTiter 96 AQueous One); conditions: Ba/F3-EGFR-Exon20-ASV cells, 72 h, MTS signal
T1 construct: expressed in transfected cells; host or cells: Ba/F3 (murine pro-B) cells, lentiviral transduction with pLVX-IRES puro
T1 sequence (P00533 with tags, fused parts or gaps INS769ASV): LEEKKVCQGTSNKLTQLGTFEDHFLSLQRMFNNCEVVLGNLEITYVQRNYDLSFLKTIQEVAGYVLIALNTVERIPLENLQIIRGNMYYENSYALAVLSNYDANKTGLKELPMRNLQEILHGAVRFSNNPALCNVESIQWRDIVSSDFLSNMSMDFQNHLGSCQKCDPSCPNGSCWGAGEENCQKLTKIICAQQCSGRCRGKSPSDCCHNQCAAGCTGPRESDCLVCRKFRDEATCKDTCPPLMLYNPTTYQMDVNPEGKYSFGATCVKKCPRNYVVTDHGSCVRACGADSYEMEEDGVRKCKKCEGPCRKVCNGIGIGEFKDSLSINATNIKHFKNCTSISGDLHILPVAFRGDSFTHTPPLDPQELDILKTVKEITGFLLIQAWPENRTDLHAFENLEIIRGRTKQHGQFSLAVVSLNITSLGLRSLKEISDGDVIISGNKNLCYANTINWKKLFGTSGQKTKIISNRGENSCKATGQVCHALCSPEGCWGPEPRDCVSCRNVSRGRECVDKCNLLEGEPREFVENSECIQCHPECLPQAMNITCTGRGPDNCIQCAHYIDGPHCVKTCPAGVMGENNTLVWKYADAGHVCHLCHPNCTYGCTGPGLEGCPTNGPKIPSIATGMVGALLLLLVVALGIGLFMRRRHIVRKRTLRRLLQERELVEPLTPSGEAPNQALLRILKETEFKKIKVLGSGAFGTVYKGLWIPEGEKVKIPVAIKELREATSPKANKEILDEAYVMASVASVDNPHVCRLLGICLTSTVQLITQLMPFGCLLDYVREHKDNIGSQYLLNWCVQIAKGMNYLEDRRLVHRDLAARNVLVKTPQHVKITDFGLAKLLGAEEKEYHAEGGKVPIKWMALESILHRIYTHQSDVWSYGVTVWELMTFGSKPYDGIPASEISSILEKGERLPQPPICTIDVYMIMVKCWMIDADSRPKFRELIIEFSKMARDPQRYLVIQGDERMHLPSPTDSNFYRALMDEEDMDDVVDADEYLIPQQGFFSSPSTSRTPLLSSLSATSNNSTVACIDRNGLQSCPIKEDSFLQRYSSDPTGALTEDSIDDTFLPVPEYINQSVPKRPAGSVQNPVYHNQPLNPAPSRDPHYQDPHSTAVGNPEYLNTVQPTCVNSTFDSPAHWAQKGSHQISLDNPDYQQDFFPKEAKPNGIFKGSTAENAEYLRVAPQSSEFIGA
Text: (§1) A compound's ability in selectively inhibiting EGFR exon 20 insertion mutations can be assessed using Ba/F3 cells, a murine pro-B cell line, which have been transduced with EGFR exon 20 insertions. An expression vector, pLVX-IRES puro (Clontech) coding for human EGFR exon 20 insertions NPG (H773_V774insNPG) or ASV (V769_D770insASV), was transfected into HEK293 cells by the Trans-Lentiviral ORF Packaging System (Thermo Scientific), to produce virus encoding EGFR exon 20 insertions. Ba/F3 (DSMZ) cells maintained in RPM11640 medium supplemented with 10% fetal bovine serum, 200 pM L-glutamine/200 µg/mL penicillin/200 µg/mL streptomycin (Life Technology) and 10 ng/mL IL-3 (R&D system), were infected by EGFR Exon20 virus and subsequently selected by puromycin (Life Technology) selection and IL-3 depletion. Ba/F3 cells expressing EGFR exon 20 insertions (named Ba/F3-EGFR-Exon20-NPG or Ba/F3-EGFR-Exon20-ASV) can proliferate in the absence of IL-3. The anti-proliferative activity of compounds were determined as follows: BaF3-EGFR-Exon20 cells (NPG or ASV) seeded in 96 well plates (2500 cells/well) were treated with test compound (dissolved in DMSO) at a series of concentrations (4-fold dilution, top concentration: 10,000 nM). The plates were incubated for 72 h in a 37° C. incubator with 5% CO2, and the number of viable cells in each well were measured indirectly by CellTiter 96® Aqueous One Solution Cell Proliferation Assay (Promega) This assay is a colorimetric method for determining the number of viable cells through measurement of their metabolic activity by detection of enzymatic conversion of tetrazolium salts into blue formazan derivatives. Reagent (20 pL) was added into each well, and the plates were returned to the incubator for 2 h. The absorbance in each well was then measured at 490 nm using an Envision plate reader (Perkin Elmer). IC50 values were calculated by determining the concentration of compound required to decrease the MTS signal by 50% comparing to the DMSO control in best-fit curves using Microsoft XLfit software or Accelrys Pipeline Pilot.

[2] = target: EGFR exon 20 NPG insertion (H773_V774insNPG) (Homo sapiens, UniProt P00533, cells depend on it, form not given); assay: Ba/F3-EGFR-Exon20-NPG cell anti-proliferation assay (MTS, CellTiter 96 AQueous One); conditions: 72 h, MTS signal
Sequence of EGFR exon 20 NPG insertion (H773_V774insNPG) (P00533 with tags, fused parts or gaps INS772GNP, form open): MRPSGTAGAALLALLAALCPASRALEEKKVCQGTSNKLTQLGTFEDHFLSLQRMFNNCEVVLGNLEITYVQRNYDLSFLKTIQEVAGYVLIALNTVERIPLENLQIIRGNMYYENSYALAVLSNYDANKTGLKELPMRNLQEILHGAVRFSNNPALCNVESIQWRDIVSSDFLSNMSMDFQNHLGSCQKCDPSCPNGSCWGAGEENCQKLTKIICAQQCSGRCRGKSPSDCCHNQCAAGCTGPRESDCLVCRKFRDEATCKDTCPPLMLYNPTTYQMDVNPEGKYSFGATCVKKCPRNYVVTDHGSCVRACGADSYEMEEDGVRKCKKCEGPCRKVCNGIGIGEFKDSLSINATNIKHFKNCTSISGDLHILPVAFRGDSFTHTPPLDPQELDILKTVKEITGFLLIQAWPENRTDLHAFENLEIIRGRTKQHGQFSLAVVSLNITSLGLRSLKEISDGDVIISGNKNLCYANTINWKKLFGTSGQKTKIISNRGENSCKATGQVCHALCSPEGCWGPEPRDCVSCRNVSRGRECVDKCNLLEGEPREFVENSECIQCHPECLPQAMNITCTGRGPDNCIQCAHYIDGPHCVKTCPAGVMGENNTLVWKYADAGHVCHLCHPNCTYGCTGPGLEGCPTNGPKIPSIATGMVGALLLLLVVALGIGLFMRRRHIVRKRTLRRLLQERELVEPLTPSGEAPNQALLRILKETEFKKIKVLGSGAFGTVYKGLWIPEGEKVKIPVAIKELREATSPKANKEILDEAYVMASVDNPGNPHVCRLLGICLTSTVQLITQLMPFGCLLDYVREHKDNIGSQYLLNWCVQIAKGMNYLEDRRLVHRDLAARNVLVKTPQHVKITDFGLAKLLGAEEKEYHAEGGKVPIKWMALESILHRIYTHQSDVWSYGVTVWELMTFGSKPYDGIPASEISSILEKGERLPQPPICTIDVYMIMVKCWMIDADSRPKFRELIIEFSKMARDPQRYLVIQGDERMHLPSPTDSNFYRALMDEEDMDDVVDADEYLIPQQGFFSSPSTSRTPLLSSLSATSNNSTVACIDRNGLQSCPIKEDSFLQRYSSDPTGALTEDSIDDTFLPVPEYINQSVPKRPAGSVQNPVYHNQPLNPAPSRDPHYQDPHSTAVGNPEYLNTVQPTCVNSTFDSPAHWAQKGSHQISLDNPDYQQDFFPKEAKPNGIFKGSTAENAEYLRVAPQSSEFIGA
Text: as §1

[3] = target: T2, EGFR exon 19 deletion (E746-A750) and T790M mutation (Homo sapiens, UniProt P00533, DEL746-750/T790M); assay: Ba/F3-EGFR-Del/T790M cell anti-proliferation assay (MTS); conditions: Ba/F3-EGFR-Del/T790M cells, 72 h, MTS signal
T2 construct: expressed in transfected cells; host or cells: Ba/F3 (murine pro-B) cells, lentiviral transduction with pLVX-IRES puro
T2 sequence (P00533 with tags, fused parts or gaps DEL746-750/T790M): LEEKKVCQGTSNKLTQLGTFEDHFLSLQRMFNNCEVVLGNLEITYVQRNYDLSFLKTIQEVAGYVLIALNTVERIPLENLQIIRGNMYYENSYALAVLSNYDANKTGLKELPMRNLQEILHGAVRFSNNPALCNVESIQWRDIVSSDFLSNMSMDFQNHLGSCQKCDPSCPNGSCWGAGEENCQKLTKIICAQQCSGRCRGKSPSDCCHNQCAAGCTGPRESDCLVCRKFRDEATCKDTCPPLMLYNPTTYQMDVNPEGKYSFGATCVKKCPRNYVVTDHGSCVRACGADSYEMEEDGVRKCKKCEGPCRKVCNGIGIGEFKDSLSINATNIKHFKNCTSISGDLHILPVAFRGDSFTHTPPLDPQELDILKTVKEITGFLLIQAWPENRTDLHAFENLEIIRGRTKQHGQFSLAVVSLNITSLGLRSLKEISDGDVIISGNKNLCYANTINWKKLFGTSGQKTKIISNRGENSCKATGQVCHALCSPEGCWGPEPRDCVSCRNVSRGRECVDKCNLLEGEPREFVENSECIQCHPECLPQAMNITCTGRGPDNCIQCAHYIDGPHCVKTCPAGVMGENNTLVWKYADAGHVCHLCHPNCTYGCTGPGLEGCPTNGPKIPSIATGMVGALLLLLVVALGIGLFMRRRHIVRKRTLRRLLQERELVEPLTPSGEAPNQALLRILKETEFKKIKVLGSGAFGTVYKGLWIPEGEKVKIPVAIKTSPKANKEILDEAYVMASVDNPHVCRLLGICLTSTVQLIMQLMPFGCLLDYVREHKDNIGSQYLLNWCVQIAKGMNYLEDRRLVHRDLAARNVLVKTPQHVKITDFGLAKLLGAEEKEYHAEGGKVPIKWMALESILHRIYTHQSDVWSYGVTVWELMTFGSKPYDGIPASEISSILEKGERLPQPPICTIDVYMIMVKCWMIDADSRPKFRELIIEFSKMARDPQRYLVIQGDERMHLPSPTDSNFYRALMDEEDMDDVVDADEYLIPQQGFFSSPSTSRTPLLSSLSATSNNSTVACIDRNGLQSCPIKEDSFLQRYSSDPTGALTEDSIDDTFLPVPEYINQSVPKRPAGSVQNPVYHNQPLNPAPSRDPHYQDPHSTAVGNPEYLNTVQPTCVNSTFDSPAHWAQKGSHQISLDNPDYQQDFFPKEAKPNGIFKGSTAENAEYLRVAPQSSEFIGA
Text: A compound's ability in selectively inhibiting EGFR exon 19 deletion and T790M concurrent mutations can be assessed using Ba/F3 cells, a murine pro-B cell line, which have been transduced with EGFR exon 19 deletion and T790M mutation. An expression vector, pLVX-IRES puro (Clontech) coding for human EGFR E746-A750 deletion and T790M Mutation, was transfected into HEK293 cells by the Trans-Lentiviral ORF Packaging System (Thermo Scientific), to produce virus encoding EGFR exon 19 deletion and T790M mutations. Ba/F3 (DSMZ) cells maintained in RPM11640 medium supplemented with 10% fetal bovine serum, 200 pM L-glutamine/200 μg/mL penicillin/200 μg/mL streptomycin (Life Technology) and 10 ng/mL IL-3 (R&D system), were infected by EGFR E746-A750 deletion and T790M Mutation virus and subsequently selected by puromycin (Life Technology) selection and IL-3 depletion. Ba/F3 cells expressing EGFR E746-A750 deletion and T790M Mutation (named Ba/F3-EGFR-Del/T790M) can proliferate in the absence of IL-3. The anti-proliferative activity of compounds was determined as follows: BaF3-EGFR-Del/T790M cells seeded in 96 well plates (2500 cells/well) were treated with test compound (dissolved in DMSO) at a series of concentrations (4-fold dilution, top concentration: 10,000 nM). The plates were incubated for 72 h in a 37° C. incubator with 5% CO2, and the number of viable cells in each well were measured indirectly by CellTiter 96® Aqueous One Solution Cell Proliferation Assay (Promega; this assay is a colorimetric method for determining the number of viable cells through measurement of their metabolic activity by detection of enzymatic conversion of tetrazolium salts into blue formazan derivatives). Reagent (20 pL) was added into each well, and the plates were returned to the incubator for 2 h. The absorbance in each well was then measured at 490 nm using an Envision plate reader (Perkin Elmer). IC50 values were calculated by determining the concentration of compound required to decrease the MTS signal by 50% comparing to the DMSO control in best-fit curves using Microsoft XLfit software or Accelrys Pipeline Pilot.

[4] = target: T3, Her2 exon 20 YVMA insertion (A775_G776ins YVMA) (Homo sapiens, UniProt P04626, INS775YVMA); assay: Ba/F3-Her2 Exon20 YVMA cell anti-proliferation assay (MTS); conditions: Ba/F3-Her2 Exon20 YVMA cells, 72 h, MTS signal
T3 construct: expressed in transfected cells; host or cells: Ba/F3 (murine pro-B) cells, lentiviral transduction with pLVX-IRES puro
T3 sequence (P04626 with tags, fused parts or gaps INS775YVMA): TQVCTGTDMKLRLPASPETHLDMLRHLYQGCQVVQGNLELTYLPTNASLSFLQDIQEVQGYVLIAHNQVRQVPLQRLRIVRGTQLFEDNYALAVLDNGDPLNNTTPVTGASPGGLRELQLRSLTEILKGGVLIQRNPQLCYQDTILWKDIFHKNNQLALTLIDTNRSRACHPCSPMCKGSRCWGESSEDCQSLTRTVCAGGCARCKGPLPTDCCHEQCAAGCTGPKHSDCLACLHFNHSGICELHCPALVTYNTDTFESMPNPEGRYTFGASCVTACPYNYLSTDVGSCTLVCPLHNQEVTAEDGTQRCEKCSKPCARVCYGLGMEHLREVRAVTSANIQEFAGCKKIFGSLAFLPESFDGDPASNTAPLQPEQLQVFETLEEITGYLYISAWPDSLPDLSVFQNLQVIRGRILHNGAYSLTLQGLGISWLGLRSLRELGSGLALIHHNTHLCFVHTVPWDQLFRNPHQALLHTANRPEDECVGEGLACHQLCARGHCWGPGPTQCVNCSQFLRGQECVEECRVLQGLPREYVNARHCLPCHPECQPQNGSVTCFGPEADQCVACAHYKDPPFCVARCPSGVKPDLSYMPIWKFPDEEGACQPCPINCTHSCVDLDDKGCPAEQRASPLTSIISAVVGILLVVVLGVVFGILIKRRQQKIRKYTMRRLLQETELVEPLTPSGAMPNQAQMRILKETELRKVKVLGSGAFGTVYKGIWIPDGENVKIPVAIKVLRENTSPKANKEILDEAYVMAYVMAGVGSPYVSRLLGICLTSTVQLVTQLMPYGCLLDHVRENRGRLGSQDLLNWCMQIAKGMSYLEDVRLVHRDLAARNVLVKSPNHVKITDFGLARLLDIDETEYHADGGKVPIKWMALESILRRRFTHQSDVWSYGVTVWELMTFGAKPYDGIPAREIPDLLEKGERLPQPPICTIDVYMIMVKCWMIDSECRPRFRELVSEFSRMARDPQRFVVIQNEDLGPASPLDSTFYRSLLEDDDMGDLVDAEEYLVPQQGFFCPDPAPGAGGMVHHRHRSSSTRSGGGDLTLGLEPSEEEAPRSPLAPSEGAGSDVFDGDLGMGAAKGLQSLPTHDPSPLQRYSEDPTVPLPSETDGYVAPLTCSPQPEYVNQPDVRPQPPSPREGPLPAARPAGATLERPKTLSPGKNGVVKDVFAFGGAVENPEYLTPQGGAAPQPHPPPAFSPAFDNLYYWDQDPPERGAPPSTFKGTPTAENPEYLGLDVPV
Text: A compound's ability in selectively inhibiting Her2 exon 20 YVMA insertion mutations can be assessed using Ba/F3 cells, a murine pro-B cell line, which have been transduced with Her2 Exon20 YVMA insertions. An expression vector, pLVX-IRES puro (Clontech) coding for human EGFR exon 20 insertions YVMA (A775_G776ins YVMA), was transfected into HEK293 cells by the Trans-Lentiviral ORF Packaging System (Thermo Scientific), to produce virus encoding EGFR exon 20 insertions. Ba/F3 (DSMZ) cells maintained in RPM11640 medium supplemented with 10% fetal bovine serum, 200 pM L-glutamine/200 μg/mL penicillin/200 μg/mL streptomycin (Life Technology) and 10 ng/mL IL-3 (R&D system), were infected by EGFR Exon20 virus and subsequently selected by puromycin (Life Technology) selection and IL-3 depletion. Ba/F3 cells expressing Her2 Exon20 YVMA insertions (named Ba/F3-Her2 Exon20 YVMA) can proliferate in the absence of IL-3. The anti-proliferative activity of compounds was determined as follows: BaF3-Her2 Exon20 YVMA cells seeded in 96 well plates (2500 cells/well) were treated with test compound (dissolved in DMSO) at a series of concentrations (4-fold dilution, top concentration: 10,000 nM). The plates were incubated for 72 h in a 37° C. incubator with 5% CO2, and the number of viable cells in each well were measured indirectly by CellTiter 96® Aqueous One Solution Cell Proliferation Assay (Promega; this assay is a colorimetric method for determining the number of viable cells through measurement of their metabolic activity by detection of enzymatic conversion of tetrazolium salts into blue formazan derivatives). Reagent (20 pL) was added into each well, and the plates were returned to the incubator for 2 h. The absorbance in each well was then measured at 490 nm using an Envision plate reader (Perkin Elmer). IC50 values were calculated by determining the concentration of compound required to decrease the MTS signal by 50% comparing to the DMSO control in best-fit curves using Microsoft XLfit software or Accelrys Pipeline Pilot.

pIC50 [1] | pIC50 [2] | pIC50 [4] | SMILES | EGFR exon 19 deletion and T790M mutation IC50 [3]
< 6.00 | 6.00 to 6.30 | < 6.00 | C=CC(=O)Nc1cc(Nc2ncc(Cl)c(-c3c4n(c5ccccc35)CCOC4)n2)c(OC)cc1N(C)CCN(C)C [Example 9, N-(5-((5-chloro-4-(3,4-dihydro-1H-[1,4]oxazino[4,3-a]indol-10-yl)pyrimidin-2-yl)amino)-2-((2-(dimethylamino)ethyl)(methyl)amino)-4-methoxyphenyl)acrylamide] | A (Group A compounds have an IC50 value for the indicated mutant below about 100 nM)
6.30 to 7.00 | > 7.00 | 6.30 to 7.00 | C=CC(=O)Nc1cc(Nc2ncc(C#N)c(-c3c4n(c5ccccc35)CCOC4)n2)c(OC)cc1N(C)CCN(C)C [Example 8, N-(5-((5-cyano-4-(3,4-dihydro-1H-[1,4]oxazino[4,3-a]indol-10-yl)pyrimidin-2-yl)amino)-2-((2-(dimethylamino)ethyl)(methyl)amino)-4-methoxyphenyl)acrylamide] | A (Group A compounds have an IC50 value for the indicated mutant below about 100 nM)
